The values that follow come from patent US20080311589A1, “METHOD OF HIGH-THROUGHPUT SCREENING OF MOLECULES AND COMPOUNDS FOR THEIR EFFECTS ON BIOLOGICAL AND CHEMICAL PROCESSES” (priority 1999, published 2008).

SMILES strings stand for the structures. Like-named read-outs stand apart in the source and are kept apart here.

Assay [1] is described as follows: UV spectral shift binding assay with 2. Particulars: metal ion concentration inducing a 50% shift in λmax of UV shoulder of 2 from 297 nm to 310 nm ([2] = 20 μM); read-out: EC50UV 2. Here is the method:
(§1) UV SPECTRAL SHIFT BINDING ASSAY: A quartz cuvette with 1 mL deionized, distilled water was used as a blank on a Cary 1E UV-visible spectrophotomer. 1a or 2 was diluted to a final concentration of 15 μM or 20 μM, respectively, and the UV spectrum from 240 nm to 320 nm was measured. […] Upon addition of certain transition metals (Table 1), this peak shifted such that the new λmax was 273 nm and 310 nm, for 1a and 2, respectively. […] For the calculation of correlation coefficients, all values less than 7.5 μM were taken to be 7.5 μM, all values greater than 1000 μM were taken to be 1000 μm and all values less than 10 μM were taken to be 10 μM.

A short description of assay [2]: UV spectral shift binding assay with 1a. Particulars: metal ion concentration inducing a 50% shift in λmax of UV shoulder of 1a ([1a] = 15 μM) from 292 nm to 273 nm; estimate of dissociation constant; read-out: EC50UV 1a. Here is the method: as §1
Assay [3] relates to p3TPLux in 6F mink lung cells. Nature of the assay: antagonism of p3TPLux activation in 6F mink lung cells. The assay is classed as cell-based. Particulars: for suppression of reporter activation by copper: TGFβ-responsive reporter; for suppression of reporter activation by 1a / suppression of reporter activation by 2 / suppression of reporter activation by TGFβ: TGFβ-responsive reporter in mink lung epithelial cells. Here is the method: LUCIFERASE ASSAYS: Our transient transfection luciferase assay was described previously by us (Stockwell et al., Chem Biol 5:385, 1998). Briefly, 100,000 Mv1Lu mink lung epithelial cells were transiently transfected in 12-well dishes with 400 ng p3TPLux or pNFkB-Lux, with or without 50 ng pFC-MEKK, in 300 μL minimal essential medium with non-essential amino acids. The DEAE-dextran/chloroquine/DMSO methods was used for transfection (Stockwell et al., Chem Biol 6:71, 1999). After cell lysis in 120 μL lysis buffer, a Beckman LS 6500 liquid scintillation counter was used in single photon mode to quantitate luminescence. For detection of luciferase activity in 6F cells (including the primary screen), 20,000 6F cells were seeded in 50 μL of 10% mink medium in each well of a white 384-well plate (Nalge Nune International; Naperville, Ill.; cat#164610) using a Multidrop 384 liquid dispenser (Lab Systems; Helsinki, Finland). After 16 hours, medium was removed using a 24 channel wand (V&P Scientific, Inc.; San Diego, Calif.; cat#VP 186L), the cells were washed with 75 μL of 0.2% mink medium (containing 0.2% FBS), and reagents were added in 40 μL of 0.2% medium. For the primary screen, reagents were added by pin transfer using 384 polypropylene pin arrays (Matrix Technologies; Hudson, N.H.). After 24 hours, the cells were cooled on ice and washed twice with 75 μL Hanks Balanced Salt Solution (HBSS; GibcoBRL; cat#24020-117). Then 20 μL lysis buffer (25 mM glycylglycine (Sigma; cat#E-0396), 1% Triton X-100 (Sigma; cat#T-9284), 1 mM dithiothreitol (DTT; Sigma; cat#D-5545), 1 mM phenylmethylsulfonyl fluoride (PMSF; Sigma; cat#P-7626)) was added to each well with a Multidrop. After incubating the cells for five minutes on ice, 20 μL of ATP/luciferin solution was added (25 mM glycylglycine pH 7.8, 15 mM MgSO4, 4 mM EGTA, 6.25 mM K2HPO4 (Sigma; cat#P5504) pH 7.8, 5 mM DTT, 75 μM D-luciferin (Sigma, cat# L-9504, 2 mM ATP (Sigma; cat#A-7699)). Light output was immediately measured with an Analyst 384-well platereader (LJL), with 0.5 second counting time per well.

The subject of assay [4] is p3TPLux TGFβ-responsive reporter in 6F mink lung cells. Kind of assay: luciferase assay, stably transfected p3TPLux. It counts as cell-based. Particulars: substance alone. Here is the method: FIG. 19 graphs the dose-response of transcriptional activation of compounds 1a and 2 in the presence (*) or absence (•) of 400 pM TGFβ1. 20,000 6F mink lung cells ( ) were seeded in 384 well plates, allowed to attach for 16 hours in 10% mink medium, and were treated with the indicated concentrations of 1a or 2.
We screened more than 16,000 chemical compounds to identify those that specifically activated expression of a reporter gene (luciferase) under the control of TGFβ-responsive elements in stably transfected mammalian cells (mink lung epithelial cells). […] Given the structural similarity of compounds 1a-c, we expected that all three were operating through a common mechanism. We therefore continued testing on only one, compound 1a, as representative of the group.

[5] abbreviates: metal ion concentration inhibiting 50% of the activation of p3TPLux by 1a ([1a] = 3 μM) in 6F mink lung cells, read-out: EC50SU 1a.
Setting [6] is: metal ion concentration inhibiting 50% of the activation of p3TPLux by 2 ([2] = 64 μM) in 6F mink lung cells, read-out: EC50Su 2.

In the case of `O.O.O.O.O.O.O=S(=O)([O-])[O-].[Ni+2]` [Ni^2+, NiSO4.6H2O], the EC50 in assay [1] amounted to 500 µM. In addition, the EC50 in assay [2] is 280 µM. Also, in assay [3], the “suppression of reporter activation by copper” value (“suppression … by copper” below) is on record as “did not”, the “suppression of reporter activation by 1a” value is recorded as “suppressed transcriptional activation by 1a”, the “suppression of reporter activation by 2” value is reported as “no effect on activation by 2 or TGFβ” and the “suppression of reporter activation by TGFβ” value (shortened to “suppression … by TGFβ”) is “no effect on activation by 2 or TGFβ”. Besides, in assay [3] (setting [5]), the EC50 turned out to be 10 µM.

For the molecule `CC(C)(C#N)N=NC(C)(C)C#N` [AIBN, 2,2′-azobis (2-methylpropinonitrile)], in assay [3], the “alteration of the effect of 1a, 2, or copper on the reporter” value is “neither agent altered the effect of 1a, 2, or copper”.

For `[Cl][Al]([Cl])[Cl]` [Al^3+, A1C13], the EC50 is 200 µM in assay [1], 30 µM in assay [2], 1 µM in assay [3] (setting [5]) and over 300 µM in assay [3] (setting [6]). Besides, the “suppression … by copper” value in assay [3] is reported as “did not”. The “suppression of reporter activation by 1a” value in assay [3] is recorded as “suppressed transcriptional activation by 1a”. In addition, the “suppression of reporter activation by 2” value in assay [3] was “no effect on activation by 2 or TGFβ”. Besides, in assay [3], the “suppression … by TGFβ” value is recorded as “no effect on activation by 2 or TGFβ”.

Regarding `[Cl-].[Cl-].[Zn+2]` [Zn^2+, ZnCl2], the EC50 in assay [1] stood at 500 µM. Also, the EC50 in assay [2] was under 7.5 µM. Also, in assay [3], the “suppression … by copper” value was “suppressed the ability of copper to activate reporter gene expression”, the “suppression of reporter activation by 1a” value is listed as “suppressed transcriptional activation by 1a”, the “suppression of reporter activation by 2” value is given as “no effect on activation by 2 or TGFβ” and the “suppression … by TGFβ” value is “no effect on activation by 2 or TGFβ”. Also, in assay [3] (setting [5]), the EC50 came out at 0.5 µM. Further, the EC50 in assay [3] (setting [6]) is over 300 µM.

For `[Cl-].[Cl-].[Mg+2]` [Mg^2+, MgCl2], the EC50 in assay [1], in assay [2], in assay [3] (setting [5]) and in assay [3] (setting [6]) was over 1000 µM throughout.

As to `Oc1cccc2cccnc12` [8-hydroxyquinoline, 8-quinolinol], the “activation of the TGFβ-responsive reporter gene” value in assay [4] is listed as “did not activate our reporter”.

Regarding `O.O.O.O.[Cl][Mn][Cl]` [Mn^2+, MnC12.4H2O], the EC50 in assay [1] is over 1000 µM. Also, in assay [2], the EC50 was 80 µM. For the same molecule, in assay [3], the “suppression … by copper” value is recorded as “did not”, the “suppression of reporter activation by 1a” value is reported as “suppressed transcriptional activation by 1a”, the “suppression of reporter activation by 2” value is recorded as “no effect on activation by 2 or TGFβ” and the “suppression … by TGFβ” value was “no effect on activation by 2 or TGFβ”. In addition, the EC50 in assay [3] (setting [5]) turned out to be 200 µM. Besides, the EC50 in assay [3] (setting [6]) is over 300 µM.

Take `[Cl-].[K+]` [K^+, KCl]: the EC50 in assay [1], in assay [2], in assay [3] (setting [5]) and in assay [3] (setting [6]) was over 1000 µM in each case.

On to `CC(=O)[O-].CC(=O)[O-].[Ba+2]` [Ba^2+, Ba(OAc)2], for which the EC50 in assay [1], in assay [2], in assay [3] (setting [5]) and in assay [3] (setting [6]) was over 1000 µM each time.

As for `[Cl-].[Na+]` [Na^+, NaCl], the EC50 in assay [1], in assay [2], in assay [3] (setting [5]) and in assay [3] (setting [6]) was over 1000 µM each time.

Turning to `O.O.O.O.O.O.[Cl-].[Cl-].[Co+2]` [Co^2+, CoCl2.6H2O], in assay [3], the “suppression … by copper” value is listed as “did not”, the “suppression of reporter activation by 1a” value is listed as “completely suppressed”, the “suppression of reporter activation by 2” value is “completely suppressed” and the “suppression … by TGFβ” value is reported as “no effect”.

`OO` [Compound H2O2, H2O2]: the “alteration of the effect of 1a, 2, or copper on the reporter” value in assay [3] is “neither agent altered the effect of 1a, 2, or copper”.

Take `[Cl][Fe]([Cl])[Cl]` [Fe^3+, FeCl3]: the EC50 in assay [1] is under 10 µM; in assay [2] it was under 7.5 µM; in assay [3] (setting [5]), 2 µM; in assay [3] (setting [6]), 9 µM. Besides, the “suppression … by copper” value in assay [3] is given as “did not”. Also, the “suppression of reporter activation by 1a” value in assay [3] is “completely suppressed”. Besides, the “suppression of reporter activation by 2” value in assay [3] is “completely suppressed”. The “suppression … by TGFβ” value in assay [3] is “no effect”.

On to `[Ca+2].[Cl-].[Cl-]` [Ca^2+, CaCl2.2H2O], for which the EC50 in assay [1], in assay [2], in assay [3] (setting [5]) and in assay [3] (setting [6]) was over 1000 µM throughout.

As to `[Cl-].[Cl-].[Co+2]` [Co^2+, CoCl2.6H2O], the EC50 was 50 µM in assay [1], 100 µM in assay [2], 10 µM in assay [3] (setting [5]) and 30 µM in assay [3] (setting [6]).
